# In US7932246B2, “Histone deacetylase inhibitors” (Chroma Therapeutics Ltd., priority 2005, dated 2011):
# Structures can show the parent of a compound that is named as a salt.
# Experiments:
# [1] = test system: HeLa cells; assay: HeLa cell inhibition assay (SRB cell viability); format: cell-based; settings: Homo sapiens, HeLa, 72 h, IC50 range
# Protocol: HeLa cells growing in log phase were harvested and seeded at 1000 cells/well (200 μl final volume) into 96-well tissue culture plates. Following 24 h of cell growth cells were treated with compounds (final concentration of 20 μM). Plates were then re-incubated for a further 72 h before a sulphorhodamine B (SRB) cell viability assay was conducted according to Skehan 1990 J Natl Canc Inst 82, 1107-1112.
# (§1) Data were expressed as a percentage inhibition of the control, measured in the absence of inhibitor, as follows:— % inhibition=100−[(S^i/S^o)×100] where S^i is the signal in the presence of inhibitor and S^o is the signal in the presence of DMSO.
# IC50 values were determined by non-linear regression analysis, after fitting the results of eight data points to the equation for sigmoidal dose response with variable slope (% activity against log concentration of compound), using Graphpad Prism software.
# (§2) IC50 results were allocated to one of 3 ranges as follows: […]
# [2] = test system: HUT; assay: HUT cell inhibition assay (WST-1 cell viability); format: cell-based; settings: HUT cells, 72-96 h, WST-1 assay, IC50 range
# Protocol: (§3) Cancer cell lines (U937 and HUT) growing in log phase were harvested and seeded at 1000-2000 cells/well (100 μl final volume) into 96-well tissue culture plates. Following 24 h of growth cells were treated with compound. Plates were then re-incubated for a further 72-96 h before a WST-1 cell viability assay was conducted according to the suppliers (Roche Applied Science) instructions.
# as §1
# (§4) Dose response curves were generated from 8 concentrations (top final concentration 10 μM, with 3-fold dilutions), using 6 replicates.
# (§5) IC50 values were determined by non-linear regression analysis, after fitting the results to the equation for sigmoidal dose response with variable slope (% activity against log concentration of compound), using Graphpad Prism software.
# as §2
# [3] = test system: U937; assay: U937 cell inhibition assay (WST-1 cell viability); format: cell-based; settings: Homo sapiens, U-937; U937 cells, 72-96 h, WST-1 assay, IC50 range
# Protocol: as §3, §1, §4, §5, §2
# [4] = molecular target: histone deacetylase activity (HeLa nuclear extract); assay: HDAC fluorescent activity assay (Biomol, Fluor de Lys substrate); format: biochemical; settings: IC50 range
# Protocol: The ability of compounds to inhibit histone deacetylase activities was measured using the commercially available HDAC fluorescent activity assay from Biomol. In brief, the Fluor de Lys™ substrate, a lysine with an epsilon-amino acetylation, is incubated with the source of histone deacetylase activity (HeLa nuclear extract) in the presence or absence of inhibitor. Deacetylation of the substrate sensitises the substrate to Fluor de Lys™ developer, which generates a fluorophore.
# Data are expressed as a percentage of the control, measured in the absence of inhibitor, with background signal being subtracted from all samples, as follows:— % activity=[(S^i−B)/(S^o−B)]×100 where S^i is the signal in the presence of substrate, enzyme and inhibitor, S^o is the signal in the presence of substrate, enzyme and the vehicle in which the inhibitor is dissolved, and B is the background signal measured in the absence of enzyme.
# Histone deacetylase activity from crude nuclear extract derived from HeLa cells was used for screening. The preparation, purchased from 4C (Seneffe, Belgium), was prepared from HeLa cells harvested whilst in exponential growth phase. The nuclear extract is prepared according to Dignam JD1983 Nucl. Acid. […] The final buffer composition was 20 mM Hepes, 100 mM KCl, 0.2 mM EDTA, 0.5 mM DTT, 0.2 mM PMSF and 20% (v/v) glycerol.
IC50 [1] [µM],IC50 [3] [µM],IC50 [4] [µM],SMILES,IC50 [2] [µM]
0.331 to 3.3,0.331 to 3.3,< 0.1,"Cn1cc(CC(=O)NC2C3CN(c4ncc(C(=O)NO)cn4)CC32)c2ccccc21 (centres unmarked) [Example 14, N-Hydroxy 2-{6-[2-(1-methyl-1H-indol-3-yl)acetylamino]-3-aza-bicyclo[3.1.0]hex-3-yl}pyrimidine-5-carboxamide]",0.331 to 3.3
0.331 to 3.3,0.331 to 3.3,< 0.1,"O=C(NO)c1cnc(N2CC3C(CNCc4ccc5ccccc5c4)C3C2)nc1 (centres unmarked) [Example 71, N-Hydroxy 2-{6-[(naphthalen-2-ylmethylamino)methyl]-3-azabicyclo[3.1.0]hex-3-yl}pyrimidine-5-carboxamide]",< 0.33
0.331 to 3.3,< 0.33,< 0.1,"O=C(NO)c1cnc(N2CC3CN(Cc4ccc(Cl)cc4)CC3C2)nc1 (centres unmarked) [Example 85, N-Hydroxy 2-[5-(4-chlorobenzyl)hexahydropyrrolo[3,4-c]pyrrol-2(1H)-yl]pyrimidine-5-carboxamide]",< 0.33
0.331 to 3.3,0.331 to 3.3,< 0.1,"O=C(NO)c1cnc(N2CC3C(CNCc4ccccc4)C3C2)nc1 (centres unmarked) [Example 72, N-Hydroxy 2-{6-[(benzylamino)methyl]-3-azabicyclo[3.1.0]hex-3-yl}pyrimidine-5-carboxamide]",< 0.33
0.331 to 3.3,0.331 to 3.3,< 0.1,"O=C(NO)c1cnc(N2CC3C(C2)C3Nc2ccc3ccccc3n2)nc1 (centres unmarked) [Example 67, N-Hydroxy 2-[6-(quinolin-2-ylamino)-3-azabicyclo[3.1.0]hex-3-yl]pyrimidine-5-carboxamide]",< 0.33
0.331 to 3.3,< 0.33,< 0.1,"N#Cc1ccc(CNC2C3CN(c4ncc(C(=O)NO)cn4)CC32)cc1 (centres unmarked) [Example 31, N-Hydroxy 2-{6-[(4-cyanobenzyl)amino]-3-azabicyclo[3.1.0]hex-3-yl}pyrimidine-5-carboxamide]",< 0.33
> 3.3,> 3.3,< 0.1,"O=C(NO)c1cnc(NC2C3CN(S(=O)(=O)c4ccc5ccccc5c4)CC32)nc1 (centres unmarked) [Example 69, N-Hydroxy 2-{[3-(2-naphthylsulfonyl)-3-azabicyclo[3.1.0]hex-6-yl]amino}pyrimidine-5-carboxamide]",0.331 to 3.3
0.331 to 3.3,0.331 to 3.3,< 0.1,"O=C(NO)c1cnc(N2CC3C(C2)C3NC(c2ccccc2)C(F)(F)F)nc1 (centres unmarked) [Example 40, N-Hydroxy 2-{6-[(2,2,2-trifluoro-1-phenylethyl)amino]-3-azabicyclo[3.1.0]hex-3-yl}pyrimidine-5-carboxamide]",< 0.33
< 0.33,< 0.33,< 0.1,"O=C(NO)c1cnc(N2CC3C(C2)C3NCc2csc3ccccc23)nc1 (centres unmarked) [Example 32, N-Hydroxy 2-{6-[(1-benzothien-3-ylmethyl)amino]-3-azabicyclo[3.1.0]hex-3-yl}pyrimidine-5-carboxamide]",< 0.33
0.331 to 3.3,0.331 to 3.3,< 0.1,"O=C(NO)c1cnc(N2CC3CN(S(=O)(=O)c4ccc(OC(F)(F)F)cc4)CC3C2)nc1 (centres unmarked) [Example 82, N-Hydroxy 2-[5-{[4-(trifluoromethoxy)phenyl]sulfonyl}hexahydropyrrolo[3,4-c]pyrrol-2(1H)-yl]pyrimidine-5-carboxamide]",0.331 to 3.3
0.331 to 3.3,0.331 to 3.3,< 0.1,"O=C(NO)c1cnc(N2CC3C(C2)C3N(CCc2ccccn2)S(=O)(=O)c2ccc3ccccc3c2)nc1 (centres unmarked) [Example 54, N-Hydroxy 2-{6-[(naphthalene-2-sulfonyl)-(2-pyridin-2-ylethyl)-amino]-3-azabicyclo[3.1.0]hex-3-yl}pyrimidine-5-carboxamide]",0.331 to 3.3
0.331 to 3.3,0.331 to 3.3,< 0.1,O=C(NO)c1cnc(N2CC3C(C2)C3NCc2ccc(C(F)(F)F)cc2)nc1 (centres unmarked) [Example 42],< 0.33
0.331 to 3.3,< 0.33,< 0.1,"O=C(NO)c1cnc(N2CC3C(C2)C3NS(=O)(=O)c2ccc(OC(F)(F)F)cc2)nc1 (centres unmarked) [Example 4, N-Hydroxy 2-(6-{[(4-trifluoromethoxyphenyl)sulfonyl]amino}-3-azabicyclo[3.1.0]hex-3-yl)pyrimidine-5-carboxamide]",< 0.33
< 0.33,< 0.33,< 0.1,"O=C(Cc1ccc(-c2ccccc2)cc1)NC1C2CN(c3ncc(C(=O)NO)cn3)CC21 (centres unmarked) [Example 19, N-Hydroxy 2-[6-(2-biphenyl-4-yl-acetylamino)-3-azabicyclo[3.1.0]hex-3-yl]pyrimidine-5-carboxamide]",< 0.33
0.331 to 3.3,0.331 to 3.3,0.101 to 1,"O=C(NO)c1cnc(N2CC3C(CNCc4ccc5cc(F)ccc5n4)C3C2)nc1 (centres unmarked) [Example 75, N-Hydroxy 2-(6-{[(6-fluoroquinolin-2-ylmethyl)amino]methyl}-3-aza-bicyclo[3.1.0]hex-3-yl)pyrimidine-5-carboxamide]",0.331 to 3.3
< 0.33,0.331 to 3.3,< 0.1,"O=C(NO)c1cnc(N2CC3CN(C(=O)c4ccc5ccccc5c4)CC3C2)nc1 (centres unmarked) [Example 77, N-Hydroxy 2-[5-(naphthalene-2-carbonyl)hexahydropyrrolo[3,4-c]pyrrol-2(1H)-yl]pyrimidine-5-carboxamide]",< 0.33
< 0.33,< 0.33,< 0.1,"CC(CCNC1C2CN(c3ncc(C(=O)NO)cn3)CC21)c1ccccc1 (centres unmarked) [Example 29, N-Hydroxy 2-[6-(3-phenylbutylamino)-3-aza-bicyclo[3.1.0]hex-3-yl]pyrimidine-5-carboxamide]",< 0.33
< 0.33,0.331 to 3.3,< 0.1,"CCN(CC)CCN(Cc1ccc2ccccc2c1)C1C2CN(c3ncc(C(=O)NO)cn3)CC21 (centres unmarked) [Example 56, N-Hydroxy 2-{6-[(2-diethylaminoethyl)naphthalen-2-ylmethylamino]-3-azabicyclo[3.1.0]hex-3-yl}pyrimidine-5-carboxamide]",< 0.33
0.331 to 3.3,0.331 to 3.3,< 0.1,"O=C(NO)c1cnc(N2CC3C(C2)C3N(Cc2ccc3ccccc3c2)C(=O)CCc2cccnc2)nc1 (centres unmarked) [Example 61, N-Hydroxy 2-{6-[naphthalen-2-ylmethyl-(3-pyridin-3-yl-propionyl)amino]-3-aza-bicyclo[3.1.0]hex-3-yl}pyrimidine-5-carboxamide]",< 0.33
0.331 to 3.3,< 0.33,< 0.1,"O=C(NO)c1cnc(N2CC3C(C2)C3NCc2ccc(F)cc2)nc1 (centres unmarked) [Example 41, N-Hydroxy 2-{6-[(4-fluorobenzyl)amino]-3-azabicyclo[3.1.0]hex-3-yl}pyrimidine-5-carboxamide]",< 0.33
< 0.33,< 0.33,< 0.1,"O=C(NO)c1cnc(N2CC3C(C2)C3NS(=O)(=O)c2ccc3ccccc3c2)nc1 (centres unmarked) [Example 1, N-Hydroxy 2-{6-[(2-naphthylsulfonyl)amino]-3-azabicyclo[3.1.0]hex-3-yl}pyrimidine-5-carboxamide trifluoroacetate]",< 0.33
0.331 to 3.3,0.331 to 3.3,< 0.1,"O=C(CCCOc1ccccc1)NC1C2CN(c3ncc(C(=O)NO)cn3)CC21 (centres unmarked) [Example 15, N-Hydroxy 2-[6-(4-phenoxybutyrylamino)-3-azabicyclo[3.1.0]hex-3-yl]pyrimidine-5-carboxamide]",0.331 to 3.3

SMILES,IC50 [1] [µM],IC50 [3] [µM],IC50 [4] [µM],IC50 [2] [µM]
"O=C(NO)c1cnc(N2CC3C(C2)C3N2CCOCC2)nc1 (centres unmarked) [Example 62, N-Hydroxy 2-(6-morpholin-4-yl-3-azabicyclo[3.1.0]hex-3-yl)pyrimidine-5-carboxamide]",> 3.3,> 3.3,0.101 to 1,0.331 to 3.3
